Measured values published in patent US20240190880A1 (THE REGENTS OF THE UNIVERSITY OF MICHIGAN, priority 2021, published 2024).

Molecular target: T1, ER (Homo sapiens, UniProt P03372)
T1 construct: host or cells: T47D and MCF7 human breast cancer cells
T1 sequence (P03372 1-595): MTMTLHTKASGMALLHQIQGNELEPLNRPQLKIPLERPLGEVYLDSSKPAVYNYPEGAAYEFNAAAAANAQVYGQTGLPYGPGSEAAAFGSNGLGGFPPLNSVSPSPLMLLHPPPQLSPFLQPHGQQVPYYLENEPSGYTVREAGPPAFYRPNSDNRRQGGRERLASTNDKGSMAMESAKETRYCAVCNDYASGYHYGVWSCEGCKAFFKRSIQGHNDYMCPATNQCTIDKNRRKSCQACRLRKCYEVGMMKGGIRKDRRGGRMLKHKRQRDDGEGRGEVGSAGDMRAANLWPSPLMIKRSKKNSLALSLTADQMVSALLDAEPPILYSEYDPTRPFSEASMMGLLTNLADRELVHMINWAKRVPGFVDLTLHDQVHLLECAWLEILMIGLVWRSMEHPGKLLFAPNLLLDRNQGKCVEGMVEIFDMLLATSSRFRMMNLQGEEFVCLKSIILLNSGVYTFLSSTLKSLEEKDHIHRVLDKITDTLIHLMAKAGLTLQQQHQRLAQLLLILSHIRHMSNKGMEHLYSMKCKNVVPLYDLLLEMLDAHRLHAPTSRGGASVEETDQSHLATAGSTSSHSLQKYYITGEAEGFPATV
Test: ER degradation activity, in-cell western blot analysis in T47D cells
Assay type: cell-based
Settings: 16 hours, Table A does not say which cell line (T47D or MCF7), read-out: Potency (DC50)
How it was run: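 T47D cells cultured in DMEM with 10% FBS, treated with compounds (final 0.5% DMSO) for 16 h. ER level measured by in-cell western with anti-rabbit-680/anti-mouse-800 near-infrared detection. Relative ER percentage calculated against untreated and DMSO-treated wells set as 100%.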

Row | Compound | DC50 [nM]
1 | C[C@@H]1Cc2c([nH]c3ccccc23)[C@@H](c2c(F)cc(N3CC(C(=O)N4CCC(N5Cc6cc7c(cc6C5)C(=O)N(C5CCC(=O)NC5=O)C7=O)CC4)C3)cc2F)N1CC(F)F (stereo partly drawn) [E 236, 6-(1-(1-(4-((1R,3R)-2-(2,2-difluoroethyl)-3-methyl-2,3,4,9-tetrahydro-1H-pyrido[3,4-b]indol-1-yl)-3,5-difluorophenyl)azetidine-3-carbonyl)piperidin-4-yl)-2-(2,6-dioxopiperidin-3-yl)-6,7-dihydropyrrolo[3,4-f]isoindole-1,3(2H,5H)-dione] | > 100
2 | C[C@@H]1Cc2c([nH]c3ccccc23)[C@@H](c2c(F)cc(N3CC4(CCN(CC(=O)N5Cc6cc7c(cc6C5)C(=O)N(C5CCC(=O)NC5=O)C7)C4)C3)cc2F)N1CC(F)F (stereo partly drawn) [E 73, 3-(6-(2-(2-(4-((1R,3R)-2-(2,2-difluoroethyl)-3-methyl-2,3,4,9-tetrahydro-1H-pyrido[3,4-b]indol-1-yl)-3,5-difluorophenyl)-2,6-diazaspiro[3.4]octan-6-yl)acetyl)-1-oxo-3,5,6,7-tetrahydropyrrolo[3,4-f]isoindol-2(1H)-yl)piperidine-2,6-dione] | < 10
3 | C[C@@H]1Cc2c([nH]c3ccccc23)[C@@H](c2c(F)cc(N3CCC(CN4CC(N5Cc6cc7c(cc6C5)C(=O)N(C5CCC(=O)NC5=O)C7=O)C4)CC3)cc2F)N1CC(F)F (stereo partly drawn) [E 123, 6-(1-((1-(4-((1R,3R)-2-(2,2-difluoroethyl)-3-methyl-2,3,4,9-tetrahydro-1H-pyrido[3,4-b]indol-1-yl)-3,5-difluorophenyl)piperidin-4-yl)methyl)azetidin-3-yl)-2-(2,6-dioxopiperidin-3-yl)-6,7-dihydropyrrolo[3,4-f]isoindole-1,3(2H,5H)-dione] | 10 to 100
4 | O=C1CCC(N2C(=O)c3cc4c(cc3C2=O)CN(CC2CCN(C(=O)C3CCN(c5ccc([C@@H]6c7ccc(O)cc7CC[C@@H]6c6ccccc6)cc5)CC3)CC2)C4)C(=O)N1 (mixture of isomers) [E 14, Rac-2-(2,6-dioxopiperidin-3-yl)-6-((1-(1-(4-((1R,2S)-6-hydroxy-2-phenyl-1,2,3,4-tetrahydronaphthalen-1-yl)phenyl)piperidine-4-carbonyl)piperidin-4-yl)methyl)-6,7-dihydropyrrolo[3,4-f]isoindole-1,3(2H,5H)-dione] | 10 to 100
5 | O=C1CCC(N2C(=O)c3cc4c(cc3C2=O)CCN(CC(=O)N2CCC3(CC2)CCN(c2ccc([C@@H]5c6ccc(O)cc6CC[C@@H]5c5ccc(F)cc5)cc2)CC3)CC4)C(=O)N1 (stereo partly drawn) [E 183, 2-(2,6-dioxopiperidin-3-yl)-7-(2-(9-(4-((1R,2S)-2-(4-fluorophenyl)-6-hydroxy-1,2,3,4-tetrahydronaphthalen-1-yl)phenyl)-3,9-diazaspiro[5.5]undecan-3-yl)-2-oxoethyl)-6,7,8,9-tetrahydroazepino[4,5-f]isoindole-1,3(2H,5H)-dione] | > 100
6 | O=C1CCC(N2C(=O)c3cc4c(cc3C2=O)CN(CC2CCN(c3ccc([C@@H]5c6ccc(O)cc6CC[C@@H]5c5ccccc5)cc3)CC2)C4)C(=O)N1 (mixture of isomers) [E 2, Rac-2-(2,6-dioxopiperidin-3-yl)-6-((1-(4-((1R,2S)-6-hydroxy-2-phenyl-1,2,3,4-tetrahydronaphthalen-1-yl)phenyl)piperidin-4-yl)methyl)-6,7-dihydropyrrolo[3,4-f]isoindole-1,3(2H,5H)-dione] | 10 to 100
7 | C[C@@H]1Cc2cc(O)ccc2[C@@H](c2c(F)cc(N3CCN(C(=O)[C@H]4CC[C@@H](N5Cc6cc7c(cc6C5)C(=O)N(C5CCC(=O)NC5=O)C7=O)CC4)CC3)cc2F)N1CC(F)F (mixture of isomers) [E 352, Rac-6-((1R,4s)-4-(4-(4-((1S,3R)-2-(2,2-difluoroethyl)-6-hydroxy-3-methyl-1,2,3,4-tetrahydroisoquinolin-1-yl)-3,5-difluorophenyl)piperazine-1-carbonyl)cyclohexyl)-2-(2,6-dioxopiperidin-3-yl)-6,7-dihydropyrrolo[3,4-f]isoindole-1,3(2H,5H)-dione] | > 100
8 | C[C@@H]1Cc2c([nH]c3ccccc23)[C@@H](c2c(F)cc(N3CCC(C(=O)N4CCC(CN5Cc6cc7c(cc6C5)C(=O)N(C5CCC(=O)NC5=O)C7=O)CC4)CC3)cc2F)N1CC(F)F (stereo partly drawn) [E 113, 6-((1-(1-(4-((1R,3R)-2-(2,2-difluoroethyl)-3-methyl-2,3,4,9-tetrahydro-1H-pyrido[3,4-b]indol-1-yl)-3,5-difluorophenyl)piperidine-4-carbonyl)piperidin-4-yl)methyl)-2-(2,6-dioxopiperidin-3-yl)-6,7-dihydropyrrolo[3,4-f]isoindole-1,3(2H,5H)-dione] | 10 to 100
9 | C[C@@H]1Cc2c([nH]c3ccccc23)[C@@H](c2c(F)cc(N3CC4(CCN4CC(=O)N4Cc5cc6c(cc5C4)C(=O)N(C4CCC(=O)NC4=O)C6)C3)cc2F)N1CC(F)F (stereo partly drawn) [E 61, 3-(6-(2-(6-(4-((1R,3R)-2-(2,2-difluoroethyl)-3-methyl-2,3,4,9-tetrahydro-1H-pyrido[3,4-b]indol-1-yl)-3,5-difluorophenyl)-1,6-diazaspiro[3.3]heptan-1-yl)acetyl)-1-oxo-3,5,6,7-tetrahydropyrrolo[3,4-f]isoindol-2(1H)-yl)piperidine-2,6-dione] | > 100
10 | C[C@@H]1Cc2c([nH]c3ccccc23)[C@@H](c2c(F)cc(N3CCCC4(CN(C(=O)CN5Cc6cc7c(cc6C5)C(=O)N(C5CCC(=O)NC5=O)C7=O)C4)C3)cc2F)N1CC(F)F (stereo partly drawn) [E 81, 6-(2-(6-(4-((1R,3R)-2-(2,2-difluoroethyl)-3-methyl-2,3,4,9-tetrahydro-1H-pyrido[3,4-b]indol-1-yl)-3,5-difluorophenyl)-2,6-diazaspiro[3.5]nonan-2-yl)-2-oxoethyl)-2-(2,6-dioxopiperidin-3-yl)-6,7-dihydropyrrolo[3,4-f]isoindole-1,3(2H,5H)-dione] | 10 to 100
11 | C[C@@H]1Cc2c([nH]c3ccccc23)[C@@H](c2c(F)cc(N3CCCC(CN4CCC(N5Cc6cc7c(cc6C5)C(=O)N(C5CCC(=O)NC5=O)C7=O)CC4)C3)cc2F)N1CC(F)F (stereo partly drawn) [E 59, 6-(1-((1-(4-((1R,3R)-2-(2,2-difluoroethyl)-3-methyl-2,3,4,9-tetrahydro-1H-pyrido[3,4-b]indol-1-yl)-3,5-difluorophenyl)piperidin-3-yl)methyl)piperidin-4-yl)-2-(2,6-dioxopiperidin-3-yl)-6,7-dihydropyrrolo[3,4-f]isoindole-1,3(2H,5H)-dione] | 10 to 100
12 | C[C@@H]1Cc2c([nH]c3ccccc23)[C@@H](c2c(F)cc(N3CCC(C(=O)N4CCC(N5Cc6cc7c(cc6C5)C(=O)N(C5CCC(=O)NC5=O)C7=O)CC4)CC3)cc2F)N1CC(C)(F)F (stereo partly drawn) [E 252, 6-(1-(1-(4-((1R,3R)-2-(2,2-difluoropropyl)-3-methyl-2,3,4,9-tetrahydro-1H-pyrido[3,4-b]indol-1-yl)-3,5-difluorophenyl)piperidine-4-carbonyl)piperidin-4-yl)-2-(2,6-dioxopiperidin-3-yl)-6,7-dihydropyrrolo[3,4-f]isoindole-1,3(2H,5H)-dione] | < 10
13 | C[C@@H]1Cc2c([nH]c3ccccc23)[C@@H](c2c(F)cc(C3CCC(C(=O)N4CCC(N5Cc6cc7c(cc6C5)C(=O)N(C5CCC(=O)NC5=O)C7=O)CC4)CC3)cc2F)N1CC(F)F (stereo partly drawn) [E246, 6-(1-(4-(4-((1R,3R)-2-(2,2-difluoroethyl)-3-methyl-2,3,4,9-tetrahydro-1H-pyrido[3,4-b]indol-1-yl)-3,5-difluorophenyl)cyclohexane-1-carbonyl)piperidin-4-yl)-2-(2,6-dioxopiperidin-3-yl)-6,7-dihydropyrrolo[3,4-f]isoindole-1,3(2H,5H)-dione] | < 10
14 | O=C1CCC(N2C(=O)c3cc4c(cc3C2=O)CN(C(=O)CN2CCC3(CC2)CC(Oc2ccc([C@@H]5c6ccc(O)cc6CC[C@@H]5c5ccccc5)cc2)C3)C4)C(=O)N1 (stereo partly drawn) [E 222, 2-(2,6-dioxopiperidin-3-yl)-6-(2-(2-(4-((1R,2S)-6-hydroxy-2-phenyl-1,2,3,4-tetrahydronaphthalen-1-yl)phenoxy)-7-azaspiro[3.5]nonan-7-yl)acetyl)-6,7-dihydropyrrolo[3,4-f]isoindole-1,3(2H,5H)-dione] | > 100
15 | O=C1CCC(N2C(=O)c3cc4c(cc3C2=O)CN(CC(=O)N2CCC3(CC2)CCN(c2c(F)cc([C@@H]5c6ccc(O)cc6CC[C@@H]5c5ccccc5)cc2F)CC3)C4)C(=O)N1 (mixture of isomers) [E 175, Rac-6-(2-(9-(2,6-difluoro-4-((1R,2S)-6-hydroxy-2-phenyl-1,2,3,4-tetrahydronaphthalen-1-yl)phenyl)-3,9-diazaspiro[5.5]undecan-3-yl)-2-oxoethyl)-2-(2,6-dioxopiperidin-3-yl)-6,7-dihydropyrrolo[3,4-f]isoindole-1,3(2H,5H)-dione] | > 100
16 | O=C1CCC(N2C(=O)c3cc4c(cc3C2=O)CN(CC(=O)N2CCC[C@H](Oc3ccc([C@@H]5c6ccc(O)cc6CC[C@@H]5c5ccc(F)cc5)cc3)C2)C4)C(=O)N1 (mixture of isomers) [E 157, Rac-2-(2,6-dioxopiperidin-3-yl)-6-(2-((S)-3-(4-((1R,2S)-2-(4-fluorophenyl)-6-hydroxy-1,2,3,4-tetrahydronaphthalen-1-yl)phenoxy)piperidin-1-yl)-2-oxoethyl)-6,7-dihydropyrrolo[3,4-f]isoindole-1,3(2H,5H)-dione] | > 100
